Experimental data published in ChEMBL document CHEMBL1148788 (J Med Chem, 2007).

What was measured:
[1] = target: T1, Glycine receptor subunit alpha-1 (Homo sapiens, UniProt P23415); experiment: Antagonist activity at human glycine alpha-1 receptor in HEK293 cells by FMP assay; format: functional, cell-based; settings: for pIC50: hek293
T1 sequence (P23415 whole entry): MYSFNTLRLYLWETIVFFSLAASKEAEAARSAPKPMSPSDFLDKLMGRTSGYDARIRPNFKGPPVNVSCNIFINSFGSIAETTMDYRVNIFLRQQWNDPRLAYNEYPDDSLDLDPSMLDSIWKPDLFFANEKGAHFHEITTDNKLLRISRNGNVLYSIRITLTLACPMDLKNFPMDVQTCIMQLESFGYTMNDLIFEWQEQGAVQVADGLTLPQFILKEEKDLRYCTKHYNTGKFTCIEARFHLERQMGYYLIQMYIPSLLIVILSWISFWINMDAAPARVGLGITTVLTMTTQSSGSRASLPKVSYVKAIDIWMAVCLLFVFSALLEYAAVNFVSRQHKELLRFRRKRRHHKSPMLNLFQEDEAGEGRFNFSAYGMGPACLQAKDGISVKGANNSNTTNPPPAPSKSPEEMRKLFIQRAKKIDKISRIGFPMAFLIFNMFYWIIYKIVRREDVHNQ

[2] = target: Neuronal acetylcholine receptor; alpha4/beta2 (Rattus norvegicus, UniProt P09483+P12390); experiment: Displacement of [3H]epibatidine from rat recombinant alpha-4-beta-2 nAChR in HEK293 cell line; format: cell-based; settings: for pKi: hek293; for Ki: read-out: Ki
Neuronal acetylcholine receptor; alpha4/beta2, sequence (P09483 whole entry): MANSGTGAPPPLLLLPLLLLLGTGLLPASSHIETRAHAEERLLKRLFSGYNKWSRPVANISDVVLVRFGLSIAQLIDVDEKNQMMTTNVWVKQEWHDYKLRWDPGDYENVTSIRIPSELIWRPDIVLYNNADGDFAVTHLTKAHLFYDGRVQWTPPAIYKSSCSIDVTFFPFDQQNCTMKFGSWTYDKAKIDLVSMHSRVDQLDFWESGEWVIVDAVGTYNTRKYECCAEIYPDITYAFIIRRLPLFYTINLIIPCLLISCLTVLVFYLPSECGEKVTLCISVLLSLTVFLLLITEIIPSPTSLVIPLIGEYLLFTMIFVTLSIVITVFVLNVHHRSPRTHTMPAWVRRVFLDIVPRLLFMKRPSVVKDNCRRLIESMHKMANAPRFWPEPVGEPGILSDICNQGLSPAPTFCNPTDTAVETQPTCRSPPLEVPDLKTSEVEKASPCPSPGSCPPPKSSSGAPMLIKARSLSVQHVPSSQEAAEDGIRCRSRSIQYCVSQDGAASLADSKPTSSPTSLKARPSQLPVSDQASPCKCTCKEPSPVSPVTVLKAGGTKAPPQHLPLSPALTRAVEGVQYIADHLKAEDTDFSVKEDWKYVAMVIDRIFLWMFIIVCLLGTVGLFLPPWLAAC
Neuronal acetylcholine receptor; alpha4/beta2, sequence (P12390 whole entry): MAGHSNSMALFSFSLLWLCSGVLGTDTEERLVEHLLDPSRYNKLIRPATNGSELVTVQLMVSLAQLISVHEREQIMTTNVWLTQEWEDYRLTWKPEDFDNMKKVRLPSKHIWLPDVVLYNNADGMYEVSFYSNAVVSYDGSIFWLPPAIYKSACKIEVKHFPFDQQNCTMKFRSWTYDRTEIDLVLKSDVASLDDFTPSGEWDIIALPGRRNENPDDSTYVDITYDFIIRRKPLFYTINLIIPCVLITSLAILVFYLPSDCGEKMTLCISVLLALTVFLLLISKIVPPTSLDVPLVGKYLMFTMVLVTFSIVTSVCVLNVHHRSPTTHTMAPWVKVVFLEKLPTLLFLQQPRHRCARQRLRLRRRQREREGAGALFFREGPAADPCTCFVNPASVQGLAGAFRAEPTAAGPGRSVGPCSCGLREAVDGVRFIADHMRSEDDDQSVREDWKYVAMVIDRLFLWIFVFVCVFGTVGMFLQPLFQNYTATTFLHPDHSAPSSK

[3] = target: T2, Neuronal acetylcholine receptor subunit alpha-7 (Homo sapiens, UniProt P36544); experiment: Displacement of [3H]methyllycaconitine from human alpha-7 in tsA201 cells coexpressed with 5HT3A receptor; format: cell-based
T2 sequence (P36544 whole entry): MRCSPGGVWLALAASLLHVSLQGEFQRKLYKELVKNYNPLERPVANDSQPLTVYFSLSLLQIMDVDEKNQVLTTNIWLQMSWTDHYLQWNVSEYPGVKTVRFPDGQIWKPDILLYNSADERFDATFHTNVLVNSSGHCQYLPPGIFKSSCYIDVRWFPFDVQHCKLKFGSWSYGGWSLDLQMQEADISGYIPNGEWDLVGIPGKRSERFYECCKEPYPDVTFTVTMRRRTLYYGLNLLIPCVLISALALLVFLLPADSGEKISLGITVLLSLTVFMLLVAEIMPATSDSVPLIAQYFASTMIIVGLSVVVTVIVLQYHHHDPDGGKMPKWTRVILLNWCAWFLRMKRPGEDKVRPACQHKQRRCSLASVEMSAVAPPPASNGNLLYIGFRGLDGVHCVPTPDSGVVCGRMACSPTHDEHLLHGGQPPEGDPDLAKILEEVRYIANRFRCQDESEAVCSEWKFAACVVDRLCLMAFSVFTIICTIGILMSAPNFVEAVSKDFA

[4] = target: T3, Neuronal acetylcholine receptor; alpha3/beta4 (Rattus norvegicus, UniProt P04757+P12392); experiment: Displacement of [3H]epibatidine from recombinant rat alpha-3-beta-4 nAChr in HEK293 cell line; format: cell-based; settings: for pKi: hek293
T3 sequence (P04757 whole entry): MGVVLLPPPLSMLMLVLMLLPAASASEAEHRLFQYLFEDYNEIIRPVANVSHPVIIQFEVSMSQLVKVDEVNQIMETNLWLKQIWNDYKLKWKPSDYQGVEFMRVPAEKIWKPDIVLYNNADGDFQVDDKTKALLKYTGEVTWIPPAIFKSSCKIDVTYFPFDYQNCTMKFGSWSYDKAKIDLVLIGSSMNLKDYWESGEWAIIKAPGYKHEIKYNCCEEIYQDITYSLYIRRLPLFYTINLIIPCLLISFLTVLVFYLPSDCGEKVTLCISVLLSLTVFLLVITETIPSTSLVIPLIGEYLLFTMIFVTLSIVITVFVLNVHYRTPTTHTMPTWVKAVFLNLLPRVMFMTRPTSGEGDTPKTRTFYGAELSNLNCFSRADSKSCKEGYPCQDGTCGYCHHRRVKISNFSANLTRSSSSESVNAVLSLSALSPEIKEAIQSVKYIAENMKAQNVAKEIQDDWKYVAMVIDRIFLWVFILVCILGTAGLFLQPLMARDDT
T3 sequence (P12392 whole entry): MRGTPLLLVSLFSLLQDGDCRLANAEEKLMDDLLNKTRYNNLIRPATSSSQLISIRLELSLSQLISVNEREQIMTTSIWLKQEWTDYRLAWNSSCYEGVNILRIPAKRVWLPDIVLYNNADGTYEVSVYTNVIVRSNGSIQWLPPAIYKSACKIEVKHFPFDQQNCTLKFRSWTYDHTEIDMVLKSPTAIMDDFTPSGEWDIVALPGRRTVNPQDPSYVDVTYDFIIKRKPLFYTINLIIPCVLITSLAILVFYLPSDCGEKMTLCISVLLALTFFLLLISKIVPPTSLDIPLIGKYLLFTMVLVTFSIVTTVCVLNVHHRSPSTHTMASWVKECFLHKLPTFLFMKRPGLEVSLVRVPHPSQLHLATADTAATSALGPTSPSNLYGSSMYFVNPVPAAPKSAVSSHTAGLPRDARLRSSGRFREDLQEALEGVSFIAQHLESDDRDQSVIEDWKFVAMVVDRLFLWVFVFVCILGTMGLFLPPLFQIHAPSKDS

[5] = target: T3, Neuronal acetylcholine receptor; alpha3/beta4; experiment: Antagonist activity at rat alpha3beta4 nAChR expressed in HEK293 cells by FMP assay; format: functional, cell-based, Homo sapiens; settings: for pIC50: hek293
[6] = target: T2, Neuronal acetylcholine receptor subunit alpha-7; experiment: Displacement of [3H]methyllycaconitine from alpha7 nAChR in tsA201 cells co-expressed with Ric3; format: cell-based
[7] = target: T4, 5-hydroxytryptamine receptor 3A (Homo sapiens, UniProt P46098); experiment: Antagonist activity at human 5HT3A receptor expressed in HEK293 cells by FMP assay; format: functional, cell-based; settings: for IC50: read-out: IC50
T4 sequence (P46098 whole entry): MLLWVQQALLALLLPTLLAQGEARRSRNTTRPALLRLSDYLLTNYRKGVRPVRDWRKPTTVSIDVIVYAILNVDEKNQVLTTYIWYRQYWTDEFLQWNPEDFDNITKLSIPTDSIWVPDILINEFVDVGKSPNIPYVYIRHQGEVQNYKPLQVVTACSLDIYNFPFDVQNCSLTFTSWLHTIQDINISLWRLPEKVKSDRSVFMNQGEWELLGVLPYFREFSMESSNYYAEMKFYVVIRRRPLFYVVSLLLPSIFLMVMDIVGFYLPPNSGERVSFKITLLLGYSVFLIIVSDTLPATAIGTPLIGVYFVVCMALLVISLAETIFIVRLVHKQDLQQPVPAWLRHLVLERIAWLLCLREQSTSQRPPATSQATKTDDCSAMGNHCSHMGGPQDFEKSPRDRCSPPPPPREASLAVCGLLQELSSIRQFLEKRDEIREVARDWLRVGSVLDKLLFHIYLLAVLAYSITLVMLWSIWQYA

[8] = cells; format: functional, cell-based; settings: Homo sapiens, HEK293
[9] = target: Neuronal acetylcholine receptor; alpha4/beta4 (Rattus norvegicus, UniProt P09483+P12392); experiment: Displacement of [3H]epibatidine from recombinant rat alpha-4-beta-4 nAChr in HEK293 cell line; format: cell-based; settings: for pKi: hek293
Neuronal acetylcholine receptor; alpha4/beta4, sequence (P09483 whole entry): as the sequence (P09483 whole entry) above
Neuronal acetylcholine receptor; alpha4/beta4, sequence (P12392 whole entry): as the sequence (P12392 whole entry) above

[10] = target: T2, Neuronal acetylcholine receptor subunit alpha-7; experiment: Antagonist activity at human alpha-7 nAChR in tsA201 cells coexpressed with Ric3 by FMP assay; format: functional, cell-based
[11] = target: T4, 5-hydroxytryptamine receptor 3A; experiment: Displacement of [3H]GR65630 from human 5HT3A receptor in HEK293 cells; format: cell-based; settings: for pKi: hek293

SMILES	IC50 [1] [µM]	pIC50 [1]	pKi [2]	Ki [2] [µM]	Ki ([3]; read-out: Ki) [µM]	Ki ([3]; read-out: pKi (converted)) [µM]	Ki [4] [µM]	pKi [4]	IC50 ([5]; read-out: IC50) [µM]	Ki ([6]; read-out: Ki) [µM]	Ki ([6]; read-out: pKi (converted)) [µM]	IC50 [7] [µM]	IC50 ([8]; read-out: IC50) [µM]	IC50 ([8]; read-out: pIC50 (converted)) [µM]	Ki [9] [µM]	pKi [9]	IC50 ([10]; read-out: IC50) [µM]	IC50 ([10]; read-out: pIC50 (converted)) [µM]	Ki [11] [µM]	pIC50 [5]	other results
COc1ccc(C[N+]23CC[C@@H]4[C@@H]5/C(=C\N6c7ccccc7[C@@]78CC[N+]9(Cc%10ccc(OC)c(OC)c%10)CC%10=CCO[C@H]([C@@H]([C@H]67)[C@H]%10C[C@@H]89)N5c5ccccc5)[C@@H](C[C@@H]42)/C(=C\CO)C3)cc1OC.[Cl-].[Cl-] (some centres not stated)	> 100	< 4	< 4	> 100	0.27	0.251	> 100	< 4	100	0.2	0.2	30	> 100	> 100	> 100	< 4	2.6	2.63	100	–	IC50 ([5]; read-out: pIC50 (converted)): 31.6 µM
Brc1ccc(C[N+]23CC[C@@H]4[C@@H]5[C@@H]6[C@@H](OCC=C(C2)[C@@H]6C[C@@H]43)N2c3ccccc3[C@@]34CC[N+]6(Cc7ccc(Br)cc7)CC7=CCO[C@H]([C@@H]([C@H]23)[C@H]7C[C@@H]46)N5c2ccccc2)cc1.[Br-].[Br-] (some centres not stated)	> 100	< 4	< 4	> 100	0.26	0.251	> 100	< 4	> 100	0.64	0.631	30	> 100	> 100	> 100	< 4	10	10.5	5.7	< 4	–
C/C=C/C[N+]12CC[C@@H]3[C@@H]4[C@@H]5[C@@H](OCC=C(C1)[C@@H]5C[C@@H]32)N1c2ccccc2[C@@]23CC[N+]5(C/C=C/C)CC6=CCO[C@H]([C@@H]([C@H]12)[C@H]6C[C@@H]35)N4c1ccccc1.[Br-].[Br-] (some centres not stated)	> 100	< 4	< 4	> 100	0.23	0.251	100	–	100	0.1	–	100	> 100	> 100	> 100	< 4	1.1	1.15	15	–	pKi ([6]; tsa201): 7
CN(C)Cc1c2n(c3ccccc13)Cc1c(CN(C)C)c3ccccc3n1C2	–	–	< 4	> 100	19	20	> 100	< 4	–	5.4	5.01	–	–	–	> 100	< 4	–	–	> 100	–	pKi [11]: < 4
C=CC[N+]12CC[C@@]34c5ccccc5N5/C=C6/[C@H]7C[C@H]8[C@@]9(CC[N@@+]8(CC=C)C/C7=C/CO)c7ccccc7N(/C=C(/[C@@H](C[C@@H]31)/C(=C\CO)C2)[C@H]54)[C@@H]69 (some centres not stated)	> 100	< 4	< 4	> 100	2.1	2	3.2	–	18	1.1	1	> 100	> 100	> 100	> 100	< 4	4.1	4.07	> 100	–	IC50 ([5]; read-out: pIC50 (converted)): 15.8 µM; pIC50 ([7]; hek293): < 4; pKi [11]: < 4
C1=C2C[N+]3(Cc4ccccc4)CC[C@@H]4[C@@H]5[C@H]([C@@H](OC1)N1c6ccccc6[C@@]67CC[N+]8(Cc9ccccc9)CC9=CCO[C@H]([C@@H]([C@H]16)[C@H]9C[C@@H]78)N5c1ccccc1)[C@H]2C[C@@H]43.[Br-].[Br-] (some centres not stated)	> 100	< 4	< 4	> 100	0.2	0.2	> 100	< 4	> 100	0.25	0.251	100	> 100	> 100	> 100	< 4	4.5	4.47	100	< 4	–
O=[N+]([O-])c1ccc(C[N+]23CCC4[C@@H]5/C(=C\N6c7ccccc7[C@@]78CC[N+]9(Cc%10ccc([N+](=O)[O-])cc%10)CC%10=CCO[C@H]([C@@H]([C@H]67)[C@H]%10C[C@@H]89)N5c5ccccc5)[C@@H](C[C@@H]42)/C(=C\CO)C3)cc1.[Br-].[Br-] (some centres not stated)	> 100	< 4	< 4	> 100	0.11	0.126	> 100	< 4	> 100	0.098	0.1	30	> 100	> 100	> 100	< 4	2.5	2.45	100	< 4	–
OC/C=C1/CN2CC[C@H]3[C@@H]2C[C@@H]1/C1=C/N2c4ccccc4[C@@]45CCN6CC7=CCO[C@H]([C@@H]([C@H]24)[C@H]7C[C@H]65)N(c2ccccc2)[C@@H]13	> 100	< 4	< 4	> 100	1.2	1.26	30	–	16	1.7	1.58	2.5	> 100	> 100	> 100	< 4	1.5	1.51	1.9	–	–
C=CC[N+]12CC[C@@H]3[C@@H]4[C@@H]5[C@@H](OCC=C(C1)[C@@H]5C[C@@H]32)N1c2ccccc2[C@@]23CCN5CC6=CCO[C@H]([C@@H]([C@H]12)[C@H]6C[C@H]53)N4c1ccccc1.[Br-] (some centres not stated)	> 100	< 4	< 4	> 100	0.071	–	> 100	< 4	30	0.055	0.0501	30	> 100	> 100	> 100	< 4	0.34	0.339	19	–	–
C[N+](C)(Cc1ccc([N+](=O)[O-])cc1)Cc1c2n(c3ccccc13)Cc1c(C[N+](C)(C)Cc3ccc([N+](=O)[O-])cc3)c3ccccc3n1C2.[Br-].[Br-]	> 100	< 4	< 4	> 100	2.1	2	> 100	< 4	> 100	3.9	3.98	30	> 100	> 100	> 100	< 4	30	100	> 100	< 4	pKi [11]: < 4
C1=C2C[N+]3(Cc4ccc5ccccc5c4)CC[C@@H]4[C@@H]5[C@H]([C@@H](OC1)N1c6ccccc6[C@@]67CC[N+]8(Cc9ccc%10ccccc%10c9)CC9=CCO[C@H]([C@@H]([C@H]16)[C@H]9C[C@@H]78)N5c1ccccc1)[C@H]2C[C@@H]43 (some centres not stated)	–	–	–	–	0.36	0.316	–	–	–	0.71	0.631	–	–	–	–	–	–	–	–	–	–
